Assays:
[1] = test system: human prostate cancer cells (PC3); experiment: Assessment of cytotoxicity by SRB assay, PC3; assay type: cell-based; settings: 72 h, 0.01 μM to 100 μM, result in words only
Description: (§1) The human prostate cancer cells (PC3) and human osteosarcoma cells (MG-63) were obtained from Nawah Scientific Inc. (Mokatam, Cairo, Egypt) and cultured in DMEM (Dulbecco's modified eagle's medium), Gibco, USA, supplemented with fetal bovine serum (FBS) at a concentration of 10% and 100 U/mL of penicillin and streptomycin (PS). The cells were incubated at 37° C. in a humidified environment that contained 5% CO2. Cells were seeded in 96-well plates as aliquots of 100 μL cell suspension and incubated in a complete media for 24 h. Afterward, cells were treated with 3-(4-chlorophenyl)-5-{[5-methyl-2-(propan-2-yl)phenoxy]methyl}-1,2,4-oxadiazole at diverse concentrations ranging from 0.01 μM to 100 μM for 72 h. Then, cells were fixed at 4° C. for one hour with 150 μL of 10% trichloroacetic acid (TCA). […] Then, 150 μL of Tris pH 10.5 (10 mM) was added, and the absorbance was measured at 540 nm using a BMG LABTECH®—FLUOstar Omega microplate reader (Ortenberg, Germany). Half maximal inhibitory concentrations (IC50) values were calculated for each experiment using GraphPad Prism 6 software. […] The inhibition was calculated using the following equation: Inhibition %=100−Average Viability The anticancer activity of 1,3-benzothiazol-2-yl-N′-(benzoyloxy)ethanimidamide was assessed against highly aggressive androgen-independent metastatic human prostate cancer cells (PC3) and osteosarcoma (MG-63) cells.

[2] = test system: human osteosarcoma cells (MG-63); experiment: Assessment of cytotoxicity by SRB assay, MG-63; assay type: cell-based; settings: 72 h, 0.01 μM to 100 μM, result in words only
Description: as §1

[3] = test system: Bacillus cereus, Staphylococcus aureus, Pseudomonas aeruginosa, Escherichia coli, Aspergillus flavus, Chrysosporium keratinophilum; experiment: Agar plate disc-diffusion antimicrobial test; assay type: cell-based; settings: 10 μL of 10 mg/mL in DMSO per disc, bacteria and fungi, result in words only
Description: The agar plate disc-diffusion method was applied. Sterilized filter papers (6 mm in diameter) were wetted with 10 μL of a solution of each compound to be tested, containing 10 mg/mL in DMSO, and the discs were allowed to air dry. The discs were then placed onto the surface of agar plates (nutrient agar for bacteria and Sabouraud's dextrose agar for fungi) and seeded with the test organism. Each plate contained 15 mL of the agar medium, previously seeded with 0.2 mL of the broth culture of each organism pre-grown for 18 hours. The plates were incubated at 37° C. for 48 hours, and 72 hours for fungi. The inhibition zones were measured in mm. Discs impregnated with DMSO were used as a control, and its inhibition zone was subtracted from the tested compound actual inhibition zone. In particular, the present 1,3-benzothiazol-2-yl-N′-(benzoyloxy)ethanimidamide was screened against gram positive bacteria, namely Bacillus cereus and Staphylococcus aureus, and gram-negative bacterial strains, namely Pseudomonas aeruginosa and Escherichia coli, while the antifungal activity was screened against Aspergillus flavus and Chrysosporium keratinophilum.

N/C(Cc1nc2ccccc2s1)=N\OC(=O)c1ccccc1 [1,3-benzothiazol-2-yl-N′-(benzoyloxy)ethanimidamide]
antiproliferative activity against PC3 cells [1]: excellent antiproliferative activities | antiproliferative activity against MG-63 cells [2]: excellent antiproliferative activities | antimicrobial activity against different microbes [3]: excellent antimicrobial activities | melting point: 153 to 155 °C

From patent US11919873B1, “1,3-benzothiazol-2-yl-N′-(benzoyloxy)ethanimidamide as an antitumor and antimicrobial compound” (priority 2023, dated 2024)
